Marks after values point to notes of the source that are not given here.
How the values were obtained:
onychomycosis = assay: Treatment of onychomycosis with topical copper silicate (cream or solution), patient trial; format: in vivo, human; settings: for Clinical - 100% clear / Clinical - New growth clear / Complete cure (KOH negative, culture negative and 100% clear) / Mycology (KOH negative and culture negative) / Mycology (KOH negative or culture negative): interim, applied twice daily
Experimental: Subjects, not already receiving anti-fungal treatment, were assessed for clinical diagnosis of onychomycosis and photographs and nail clippings were taken. Those testing positive for onychomycosis were admitted to the trial.
The anti-fungal composition (cream or solution) was applied to the infected nail twice daily for the duration of the treatment.
Estimates of the nail area involved were made during clinical visits and photographs were taken. Nail clippings were collected for KOH and dermatophyte culture. […] Results
The results presented hereunder are interim results of a 12 month study. Patients entered the trial and commenced their treatment at different dates. […] Patients were assessed at 0 (commencement). 6 weeks and 12 weeks.

Trichophyton rubrum = settings: modal value, n=26
[1] = system: T. mentagrophytes var interdigitale; settings: modal value, n=19
T. mentagrophytes = settings: modal value, n=12
T. tonsurans = settings: modal value, n=10
Epidermophyton floccosum = settings: modal value, n=11
Microsporum canis = settings: modal value, n=9
M. gypseum = settings: modal value, n=9
Aspergillus flavus = settings: modal value, n=12
A. fumigatus = settings: modal value, n=12
A. niger = settings: modal value, n=14
A. terrus = settings: modal value, n=7
Fusarium spp. = settings: modal value, n=16
Scopulariopsis spp. = settings: modal value, n=5
Scedosporium spp. = settings: modal value, n=5
Candida albicans = settings: modal value, n=10
C. tropicalis = settings: modal value, n=10
C. parasilosis = settings: modal value, n=10
C. glabrate = settings: modal value, n=4
[2] = system: C. pseudotropicalis (kefyr); settings: modal value, n=1
C. krusei = settings: modal value, n=1
[3] = Post-treatment Week 13 (N = 18)
[4] = Post-treatment Week 13 (N = 18), = 39 weeks
[5] = Post-treatment Week 26 (N = 18)
[6] = Treatment time Week 12 (N = 18)
[7] = Treatment time Week 26 (N = 18)

copper silicate
61 % of Patients: Clinical - New growth clear (onychomycosis; 6 Weeks (n = 13))
2: % Nail infected 1-10%, number of patients (onychomycosis; [5]) | % Nail infected 1-10%, number of patients (onychomycosis; Treatment time Week 6 (N = 18)) | Outcome Effective treatment, number of patients (onychomycosis; Treatment time Week 6 (N = 18)) | New growth Not clear, number of patients (onychomycosis; [6]) | Outcome Complete cure, number of patients (onychomycosis; [6]) | New growth Not clear, number of patients (onychomycosis; [7])
6: % Nail infected 11-50%, number of patients (onychomycosis; [3]) | % Nail infected 11-50%, number of patients (onychomycosis; [5]) | KOH Negative, number of patients (onychomycosis; [5]) | Outcome Mycological change (culture positive to culture negative), number of patients (onychomycosis; Treatment time Week 6 (N = 18)) | Infecting organism T. rubrum, number of patients (onychomycosis; [6]) | % Nail infected >50%, number of patients (onychomycosis; [7]) | Dermatophyte culture Positive, number of patients (onychomycosis; [7]) | KOH Negative, number of patients (onychomycosis; [7])
15: New growth Clear, number of patients (onychomycosis; [3]) | New growth Clear, number of patients (onychomycosis; [5])
8^#: Outcome Not effective, number of patients (onychomycosis; Treatment time Week 6 (N = 18), includes 2 patients that are KOH negative)
4: KOH Negative, number of patients (onychomycosis; [3]) | Outcome Effective treatment, number of patients (onychomycosis; [5]) | Outcome Mycological cure, number of patients (onychomycosis; [5]) | KOH Negative, number of patients (onychomycosis; Treatment time Week 6 (N = 18)) | Outcome Mycological cure, number of patients (onychomycosis; Treatment time Week 6 (N = 18)) | % Nail infected 11-50%, number of patients (onychomycosis; [6]) | KOH Negative, number of patients (onychomycosis; [6])
16: New growth Clear, number of patients (onychomycosis; [6]) | New growth Clear, number of patients (onychomycosis; [7])
6^@: Outcome Not effective, number of patients (onychomycosis; Treatment time Week 26 (N = 18), includes 1 patient that is KOH negative)
0: % Nail infected 0% (clear), number of patients (onychomycosis; Treatment time Week 6 (N = 18)) | Outcome Complete cure, number of patients (onychomycosis; Treatment time Week 6 (N = 18))
55%: Patients culture negative (onychomycosis; 13 weeks post-treatment)
22%: Patients "effectively treated" (onychomycosis; 26 weeks post treatment) | "Mycological cure" rate (onychomycosis; at 52 weeks)
50%: Patients with >50% of nail plate diseased having significant clinical improvement (reduction to <50% of the nail plate) (onychomycosis; at 26 weeks) | Patients culture negative (onychomycosis; end of the trial)
80 % of Patients: Mycology (KOH negative or culture negative) (onychomycosis; 12 Weeks (n = 10))
12: KOH Positive, number of patients (onychomycosis; [5]) | Dermatophyte culture Negative, number of patients (onychomycosis; [7]) | KOH Positive, number of patients (onychomycosis; [7])
0.1400 % w/w as Cu: Minimum Fungicidal Concentration (MFC) (M. gypseum) | Minimum Inhibitory Concentration (MIC) (Aspergillus flavus) | Minimum Fungicidal Concentration (MFC) (A. niger) | Minimum Fungicidal Concentration (MFC) (C. glabrate)
5: Outcome Mycological change (culture positive to culture negative), number of patients (onychomycosis; [5]) | % Nail infected 11-50%, number of patients (onychomycosis; Treatment time Week 6 (N = 18)) | Infecting organism T. rubrum, number of patients (onychomycosis; [7]) | Outcome Mycological cure, number of patients (onychomycosis; [7])
>0.1400 % w/w as Cu: Minimum Fungicidal Concentration (MFC) (Aspergillus flavus) | Minimum Fungicidal Concentration (MFC) (A. fumigatus) | Minimum Fungicidal Concentration (MFC) (A. terrus) | Minimum Fungicidal Concentration (MFC) (Scopulariopsis spp.) | Minimum Fungicidal Concentration (MFC) (Scedosporium spp.)
0 % of Patients: Clinical - 100% clear (onychomycosis; 6 Weeks (n = 13)) | Complete cure (KOH negative, culture negative and 100% clear) (onychomycosis; 6 Weeks (n = 13)) | Mycology (KOH negative and culture negative) (onychomycosis; 6 Weeks (n = 13))
1: % Nail infected 1-10%, number of patients (onychomycosis; [3]) | Infecting organism T. mentagrophytes v. interdigitale, number of patients (onychomycosis; [3]) | Infecting organism T. mentagrophytes v. interdigitale, number of patients (onychomycosis; [5]) | Infecting organism T. mentagrophytes v. interdigitale, number of patients (onychomycosis; Treatment time Week 6 (N = 18)) | % Nail infected 1-10%, number of patients (onychomycosis; [6]) | Infecting organism T. mentagrophytes v. interdigitale, number of patients (onychomycosis; [6]) | % Nail infected 1-10%, number of patients (onychomycosis; [7]) | Infecting organism T. mentagrophytes v. interdigitale, number of patients (onychomycosis; [7])
0.0175 % w/w as Cu: Minimum Inhibitory Concentration (MIC) (Trichophyton rubrum) | Minimum Inhibitory Concentration (MIC) [1] | Minimum Inhibitory Concentration (MIC) (T. mentagrophytes) | Minimum Fungicidal Concentration (MFC) (C. krusei) | Minimum Inhibitory Concentration (MIC) (C. krusei)
10: Dermatophyte culture Negative, number of patients (onychomycosis; [4]) | Dermatophyte culture Negative, number of patients (onychomycosis; Treatment time Week 6 (N = 18)) | % Nail infected >50%, number of patients (onychomycosis; [6])
0.0700 % w/w as Cu: Minimum Fungicidal Concentration (MFC) (Microsporum canis) | Minimum Inhibitory Concentration (MIC) (A. terrus) | Minimum Fungicidal Concentration (MFC) (Fusarium spp.) | Minimum Inhibitory Concentration (MIC) (Fusarium spp.) | Minimum Fungicidal Concentration (MFC) (Candida albicans) | Minimum Fungicidal Concentration (MFC) (C. tropicalis)
0.0350 % w/w as Cu: Minimum Fungicidal Concentration (MFC) (Trichophyton rubrum) | Minimum Fungicidal Concentration (MFC) [1] | Minimum Fungicidal Concentration (MFC) (T. mentagrophytes) | Minimum Fungicidal Concentration (MFC) (T. tonsurans) | Minimum Inhibitory Concentration (MIC) (T. tonsurans) | Minimum Fungicidal Concentration (MFC) (Epidermophyton floccosum) | Minimum Inhibitory Concentration (MIC) (Epidermophyton floccosum) | Minimum Inhibitory Concentration (MIC) (Microsporum canis) | Minimum Inhibitory Concentration (MIC) (M. gypseum) | Minimum Inhibitory Concentration (MIC) (A. fumigatus) | Minimum Inhibitory Concentration (MIC) (A. niger) | Minimum Inhibitory Concentration (MIC) (Scopulariopsis spp.) | Minimum Inhibitory Concentration (MIC) (Scedosporium spp.) | Minimum Inhibitory Concentration (MIC) (Candida albicans) | Minimum Inhibitory Concentration (MIC) (C. tropicalis) | Minimum Fungicidal Concentration (MFC) (C. parasilosis) | Minimum Inhibitory Concentration (MIC) (C. parasilosis) | Minimum Inhibitory Concentration (MIC) (C. glabrate) | Minimum Fungicidal Concentration (MFC) [2] | Minimum Inhibitory Concentration (MIC) [2]
53 % of Patients: Mycology (KOH negative or culture negative) (onychomycosis; 6 Weeks (n = 13))
8: % Nail infected >50%, number of patients (onychomycosis; [3]) | Dermatophyte culture Positive, number of patients (onychomycosis; [3]) | Infecting organism T. rubrum, number of patients (onychomycosis; [5]) | Dermatophyte culture Positive, number of patients (onychomycosis; Treatment time Week 6 (N = 18)) | Outcome Mycological change (culture positive to culture negative), number of patients (onychomycosis; [6]) | % Nail infected 11-50%, number of patients (onychomycosis; [7])
7^@: Outcome Not effective, number of patients (onychomycosis; Treatment time Week 12 (N = 18), includes 1 patient that is KOH negative)
20 % of Patients: Complete cure (KOH negative, culture negative and 100% clear) (onychomycosis; 12 Weeks (n = 10)) | Mycology (KOH negative and culture negative) (onychomycosis; 12 Weeks (n = 10))
11: % Nail infected >50%, number of patients (onychomycosis; Treatment time Week 6 (N = 18)) | New growth Clear, number of patients (onychomycosis; Treatment time Week 6 (N = 18)) | Dermatophyte culture Negative, number of patients (onychomycosis; [6])
30 % of Patients: Clinical - 100% clear (onychomycosis; 12 Weeks (n = 10))
67%: Patients culture negative (onychomycosis; end of treatment)
14: KOH Positive, number of patients (onychomycosis; [3]) | KOH Positive, number of patients (onychomycosis; Treatment time Week 6 (N = 18)) | KOH Positive, number of patients (onychomycosis; [6])
70 % of Patients: Clinical - New growth clear (onychomycosis; 12 Weeks (n = 10))
9^@: Outcome Not effective, number of patients (onychomycosis; Post-treatment Week 26 (N = 18), includes 1 patient that is KOH negative)
7: Infecting organism T. rubrum, number of patients (onychomycosis; [3]) | Outcome Mycological change (culture positive to culture negative), number of patients (onychomycosis; [4]) | % Nail infected >50%, number of patients (onychomycosis; [5]) | Infecting organism T. rubrum, number of patients (onychomycosis; Treatment time Week 6 (N = 18)) | New growth Not clear, number of patients (onychomycosis; Treatment time Week 6 (N = 18)) | Dermatophyte culture Positive, number of patients (onychomycosis; [6]) | Outcome Mycological change (culture positive to culture negative), number of patients (onychomycosis; [7])
9: Dermatophyte culture Positive, number of patients (onychomycosis; [5]) | Dermatophyte culture Negative, number of patients (onychomycosis; Post-treatment Week 26 (N = 18), = 52 weeks, end of the trial)
28%: "Mycological cure" patients (onychomycosis; after 26 weeks)
8^@: Outcome Not effective, number of patients (onychomycosis; Post-treatment Week 13 (N = 18), includes 1 patient that is KOH negative)
3: % Nail infected 0% (clear), number of patients (onychomycosis; [3]) | New growth Not clear, number of patients (onychomycosis; [3]) | Outcome Complete cure, number of patients (onychomycosis; [3]) | Outcome Effective treatment, number of patients (onychomycosis; [3]) | Outcome Mycological cure, number of patients (onychomycosis; [3]) | % Nail infected 0% (clear), number of patients (onychomycosis; [5]) | New growth Not clear, number of patients (onychomycosis; [5]) | Outcome Complete cure, number of patients (onychomycosis; Post-treatment Week 26 (N = 18), = 52 weeks) | % Nail infected 0% (clear), number of patients (onychomycosis; [6]) | Outcome Effective treatment, number of patients (onychomycosis; [6]) | Outcome Mycological cure, number of patients (onychomycosis; [6]) | % Nail infected 0% (clear), number of patients (onychomycosis; [7]) | Outcome Complete cure, number of patients (onychomycosis; [7]) | Outcome Effective treatment, number of patients (onychomycosis; [7])
